Measured values as given in patent US4864023A, “Pyrido(3,2,1-IJ)-1,3,4-benzoxadiazine derivatives” (priority 1988, dated 1989).
Converted amounts (≈) assume the structure as drawn. Like-named read-outs stand apart in the source and are kept apart here.

Legend:
[1] = test system: Serratia marcescens IFO 12648; experiment: in vitro antibacterial activity, standard agar dilution method; type: cell-based; details: IFO12648, aerobic, read-out: minimum inhibitory concentration (MIC)
[2] = test system: Pseudomonas aeruginosa NR 2950; experiment: as above; type: cell-based; details: NR2950, aerobic, read-out: minimum inhibitory concentration (MIC)
[3] = test system: Staphylococcus aureus NR 2855; experiment: as above; type: cell-based; details: NR2855; Staphylococcus aureus NR 2855; aerobic; agar dilution; read-out: minimum inhibitory concentration (MIC)
[4] = test system: Staphylococcus aureus FDA 209P JC-1; experiment: as above; type: cell-based; details: FDA209P, read-out: minimum inhibitory concentration (MIC)
[5] = test system: Proteus vulgaris OX19 ATCC 6898; experiment: as above; type: cell-based; details: ATCC6898, aerobic, read-out: minimum inhibitory concentration (MIC)
[6] = test system: Alcaligenes faecalis IFO 13111; experiment: as above; type: cell-based; details: IFO13111, aerobic, read-out: minimum inhibitory concentration (MIC)
[7] = test system: Staphylococcus epidermidis IFO 12993; experiment: as above; type: cell-based; details: IFO12993, aerobic, read-out: minimum inhibitory concentration (MIC)
[8] = test system: Bacillus subtilis PCI 219; experiment: as above; type: cell-based; details: PCI219, aerobic, read-out: minimum inhibitory concentration (MIC)
[9] = test system: Bordetella bronchiseptica ATCC 4617; experiment: as above; type: cell-based; details: ATCC4617, aerobic, read-out: minimum inhibitory concentration (MIC)
[10] = test system: Citrobacter freundii IFO 12681; experiment: as above; type: cell-based; details: IFO12681, aerobic, read-out: minimum inhibitory concentration (MIC)
[11] = test system: Salmonella typhimurium IFO 12529; experiment: as above; type: cell-based; details: Salmonella enterica, aerobic, read-out: minimum inhibitory concentration (MIC)
[12] = test system: Enterobacter cloacae NR 2946; experiment: as above; type: cell-based; details: NR2946, aerobic, read-out: minimum inhibitory concentration (MIC)
[13] = test system: Proteus rettgeri ATCC 14505; experiment: as above; type: cell-based; details: Providencia rettgeri, ATCC14505, aerobic, read-out: minimum inhibitory concentration (MIC)
[14] = acute toxicity by oral administration; details: mouse, in vivo; oral administration, ICR mice; read-out: LD50
Source text: The acute toxicity of these compounds was examined by oral administration in ICR mice.

[15] = test system: Klebsiella pneumoniae FDA PCI 602; experiment: in vitro antibacterial activity, standard agar dilution method; type: cell-based; details: FDAPCI602, aerobic, read-out: minimum inhibitory concentration (MIC)
[16] = test system: Staphylococcus epidermidis NR 2942; experiment: as above; type: cell-based; details: NR2942, aerobic, read-out: minimum inhibitory concentration (MIC)
[17] = test system: Pseudomonas stutzeri IFO 12695; experiment: as above; type: cell-based; details: Stutzerimonas stutzeri, IFO12695, aerobic, read-out: minimum inhibitory concentration (MIC)
[18] = test system: Enterococcus faecalis NR 2943; experiment: as above; type: cell-based; details: NR2943, aerobic, read-out: minimum inhibitory concentration (MIC)
[19] = test system: Enterobacter aerogenes NR 2945; experiment: as above; type: cell-based; details: Klebsiella aerogenes, NR2945, aerobic, read-out: minimum inhibitory concentration (MIC)
[20] = test system: Pseudomonas aeruginosa A3; experiment: as above; type: cell-based; details: aerobic, read-out: minimum inhibitory concentration (MIC)
[21] = test system: Staphylococcus aureus Smith; experiment: as above; type: cell-based; details: read-out: minimum inhibitory concentration (MIC)
[22] = test system: Escherichia coli NIHJ JC-2; experiment: as above; type: cell-based; details: NIHJJC2, aerobic, read-out: minimum inhibitory concentration (MIC)
[23] = test system: Escherichia coli NR 2630; experiment: as above; type: cell-based; details: NR2630; Escherichia coli NR 2630; aerobic; agar dilution; read-out: minimum inhibitory concentration (MIC)
[24] = Staphylococcus aureus FDA 209P JC-1, aerobic, agar dilution
[25] = Staphylococcus aureus Smith, aerobic, agar dilution

Row | Structure (SMILES) | MIC [1] [µg/mL] | MIC [2] [µg/mL] | MIC [3] [µg/mL] | MIC [4, 24] [µg/mL] | MIC [5] [µg/mL] | MIC [6] [µg/mL] | MIC [7] [µg/mL] | MIC [8] [µg/mL] | MIC [9] [µg/mL] | MIC [10] [µg/mL] | MIC [11] [µg/mL] | MIC [12] [µg/mL] | MIC [13] [µg/mL] | MIC [15] [µg/mL] | MIC [16] [µg/mL] | MIC [17] [µg/mL] | MIC [18] [µg/mL] | MIC [19] [µg/mL] | MIC [20] [µg/mL] | MIC [22] [µg/mL] | further results
1 | CN1COc2c(N3CCCNCC3)c(F)cc3c(=O)c(C(=O)O)cn1c23 [Example 16] | 0.39 (≈ 1.08 µM) | 6.25 (≈ 17.2 µM) | 6.25 (≈ 17.2 µM) | 0.39 (≈ 1.08 µM) | 0.1 (≈ 0.276 µM) | 50 (≈ 138 µM) | 1.56 (≈ 4.31 µM) | 0.2 (≈ 0.552 µM) | 25 (≈ 69 µM) | 0.1 (≈ 0.276 µM) | 0.1 (≈ 0.276 µM) | 0.1 (≈ 0.276 µM) | 1.56 (≈ 4.31 µM) | 1.56 (≈ 4.31 µM) | 1.56 (≈ 4.31 µM) | 0.05 (≈ 0.138 µM) | 25 (≈ 69 µM) | 0.05 (≈ 0.138 µM) | 0.39 (≈ 1.08 µM) | 0.2 (≈ 0.552 µM) | LD50 [14]: > 2000 mg/kg; MIC [21, 25]: 0.39 µg/mL (≈ 1.08 µM)
2 | CN1COc2c(N3CCN(Cc4ccc(N)cc4)CC3)c(F)cc3c(=O)c(C(=O)O)cn1c23 [Example 53, 10-[4-(4-aminobenzyl)-1-piperazinyl]-9-fluoro-3-methyl-7-oxo-2,3-dihydro-7H-pyrido[3,2,1-ij]-1,3,4-benzoxadiazine-6-carboxylic acid] | 0.78 (≈ 1.72 µM) | 12.5 (≈ 27.6 µM) | 0.1 (≈ 0.221 µM) | 0.1 (≈ 0.221 µM) | 0.1 (≈ 0.221 µM) | 3.13 (≈ 6.9 µM) | 0.1 (≈ 0.221 µM) | 0.025 (≈ 0.0551 µM) | 0.78 (≈ 1.72 µM) | 0.1 (≈ 0.221 µM) | 0.1 (≈ 0.221 µM) | 0.2 (≈ 0.441 µM) | 1.56 (≈ 3.44 µM) | 0.39 (≈ 0.86 µM) | 0.1 (≈ 0.221 µM) | 0.2 (≈ 0.441 µM) | 1.56 (≈ 3.44 µM) | 0.1 (≈ 0.221 µM) | 0.78 (≈ 1.72 µM) | 0.2 (≈ 0.441 µM) | MIC [23]: 0.05 µg/mL (≈ 0.11 µM); MIC [21, 25]: 0.05 µg/mL (≈ 0.11 µM)
3 | CN1COc2c(N3CCC(CN)C3)c(F)cc3c(=O)c(C(=O)O)cn1c23 (stereo not drawn) [Example 54, 10-[3-(aminomethyl)-1-pyrrolidinyl]-9-fluoro-3-methyl-7-oxo-2,3-dihydro-7H-pyrido[3,2,1-ij]-1,3,4-benzoxadiazine-6-carboxylic acid] | 0.39 (≈ 1.08 µM) | 1.56 (≈ 4.31 µM) | 0.2 (≈ 0.552 µM) | 0.013 (≈ 0.0359 µM) | 0.013 (≈ 0.0359 µM) | 6.25 (≈ 17.2 µM) | 0.1 (≈ 0.276 µM) | 0.025 (≈ 0.069 µM) | 3.13 (≈ 8.64 µM) | 0.1 (≈ 0.276 µM) | 0.025 (≈ 0.069 µM) | 0.1 (≈ 0.276 µM) | 0.78 (≈ 2.15 µM) | 0.78 (≈ 2.15 µM) | 0.1 (≈ 0.276 µM) | 0.013 (≈ 0.0359 µM) | 1.56 (≈ 4.31 µM) | 0.025 (≈ 0.069 µM) | 0.2 (≈ 0.552 µM) | 0.1 (≈ 0.276 µM) | MIC [23]: 0.025 µg/mL (≈ 0.069 µM); MIC [21, 25]: 0.025 µg/mL (≈ 0.069 µM)
4 | CN1COc2c(N3CCC(Cl)C3)c(F)cc3c(=O)c(C(=O)O)cn1c23 (stereo not drawn) [Example 59, 10-(3-chloro-1-pyrrolidinyl)-9-fluoro-3-methyl-7-oxo-2,3-dihydro-7H-pyrido[3,2,1-ij]-1,3,4-benzoxadiazine-6-carboxylic acid] | 3.13 (≈ 8.51 µM) | 25 (≈ 68 µM) | 0.1 (≈ 0.272 µM) |  | 0.2 (≈ 0.544 µM) | 6.25 (≈ 17 µM) | 0.39 (≈ 1.06 µM) | 0.0065 (≈ 0.0177 µM) | 3.13 (≈ 8.51 µM) | 1.56 (≈ 4.24 µM) | 1.56 (≈ 4.24 µM) | 0.78 (≈ 2.12 µM) | 3.13 (≈ 8.51 µM) | 3.13 (≈ 8.51 µM) | 0.2 (≈ 0.544 µM) | 1.56 (≈ 4.24 µM) | 3.13 (≈ 8.51 µM) | 0.78 (≈ 2.12 µM) | 3.13 (≈ 8.51 µM) | 1.56 (≈ 4.24 µM) | MIC ([4]; Staphylococcus aureus): 0.39 µg/mL (≈ 1.06 µM); MIC [23]: 0.39 µg/mL (≈ 1.06 µM); MIC [21, 25]: 0.05 µg/mL (≈ 0.136 µM)
5 | CN1COc2c(N3CCC(N)C3)c(F)cc3c(=O)c(C(=O)OCOC(=O)C(C)(C)C)cn1c23 (stereo not drawn) [Example 63, pivaloyloxymethyl 10-(3-amino-1-pyrrolidinyl)-9-fluoro-3-methyl-7-oxo-2,3-dihydro-7H-pyrido[3,2,1-ij]-1,3,4-benzoxadiazine-6-carboxylate] | 3.13 (≈ 6.77 µM) | 25 (≈ 54.1 µM) | 3.13 (≈ 6.77 µM) | 0.78 (≈ 1.69 µM) | 0.39 (≈ 0.843 µM) | 100 (≈ 216 µM) | 1.56 (≈ 3.37 µM) | 0.78 (≈ 1.69 µM) | 50 (≈ 108 µM) | 0.78 (≈ 1.69 µM) | 0.78 (≈ 1.69 µM) | 1.56 (≈ 3.37 µM) | 6.25 (≈ 13.5 µM) | 6.25 (≈ 13.5 µM) | 0.78 (≈ 1.69 µM) | 0.39 (≈ 0.843 µM) | 25 (≈ 54.1 µM) | 0.39 (≈ 0.843 µM) | 3.13 (≈ 6.77 µM) | 1.56 (≈ 3.37 µM) | MIC [23]: 0.78 µg/mL (≈ 1.69 µM); MIC ([21]; Staphylococcus aureus): 0.39 µg/mL (≈ 0.843 µM)
6 | CN1CCN(c2c(F)cc3c(=O)c(C(=O)O)cn4c3c2OCN4CCF)CC1 [Example 69, 9-fluoro-3-(2-fluoroethyl)-10-(4-methyl-1-piperazinyl)-7-oxo-2,3-dihydro-7H-pyrido[3,2,1-ij]-1,3,4-benzoxadiazine-6-carboxylic acid] | 0.2 (≈ 0.507 µM) | 6.25 (≈ 15.8 µM) | 1.56 (≈ 3.96 µM) | 1.56 (≈ 3.96 µM) | 0.05 (≈ 0.127 µM) | 3.13 (≈ 7.94 µM) | 1.56 (≈ 3.96 µM) | 0.2 (≈ 0.507 µM) | 0.78 (≈ 1.98 µM) | 0.1 (≈ 0.254 µM) | 0.1 (≈ 0.254 µM) | 0.2 (≈ 0.507 µM) | 0.78 (≈ 1.98 µM) | 0.39 (≈ 0.989 µM) | 1.56 (≈ 3.96 µM) | 0.2 (≈ 0.507 µM) | 12.5 (≈ 31.7 µM) | 0.1 (≈ 0.254 µM) | 0.78 (≈ 1.98 µM) | 0.2 (≈ 0.507 µM) | MIC [23]: 0.1 µg/mL (≈ 0.254 µM); MIC [21, 25]: 0.78 µg/mL (≈ 1.98 µM)
